Measurements taken from patent US12102615B2 (THE TEXAS A&M UNIVERSITY SYSTEM, priority 2018, dated 2024).
Numbered stars: 1 amine (or outer) side, 2 acyl side, 3 side chain; on linkers, the order of the positions; unused ones are H or OH. Square brackets hold non-standard residues; d marks the D form. Peptide text beside a SMILES is read from it. dTyr(βR-OH) = N[C@@H](C(=O)O)[C@H](O)c1ccc(O)cc1; X1 = CCCCCCCCCCCCNCC[C@H](CC(=O)[*:2])N[*:1]; Asn(3S-OH) = NC(=O)[C@@H](O)[C@H](N)C(=O)O; dDab = NCC[C@@H](N)C(=O)O

Assays:
actin = target: T1, actin (Oryctolagus cuniculus, UniProt P68135); assay: Pyrene labeled actin polymerization assay; format: biochemical; conditions: 5 μM; approximately one hour after incubation in the polymerization buffer
T1 construct: purchased Cytoskeleton, Inc. (Denver, CO) BK003
Protocol: (§1) Actin polymerization and depolymerization assays were performed using the Actin polymerization biochem kit (#BK003; Cytoskeleton, Inc. Denver, CO) following the manufacturer's instructions with some modifications. Briefly, for the polymerization assay, G-actin stock solution was made at 0.2 mg/mL instead of 0.4 mg/mL. For the depolymerization assay, F-actin stock solution was diluted 9-fold instead of 5-fold. […] The experiments were done in duplicate.

[1] = system: S. cerevisiae DGY6 haploid BY4741; format: cell-based; conditions: Saccharomyces cerevisiae DGY6 haploid BY4741; 24 hours, 35° C.
Protocol: (§2) MIC assays were performed in duplicate as previously described following a modified version of the CLSI M27-A3 methods.
(§3) Minimum inhibitory concentration (MIC) susceptibility testing was performed following a modified version, as previously reported, of the CLSI M27-A3 methods for the susceptibility testing of yeasts. Incubation temperature was 35° C. and the inoculum size was 0.5-2.5×10^3 colony-forming units (CFU)/mL for yeasts. MICs were performed to determine the bioactivity of each new OF-Δxyl analogue (Table 3).

[2] = system: Candida albicans ATCC 3147; format: cell-based; conditions: 24 hours, 35° C., listed as dihydrosphingosine
Protocol: as §2, §3

F-actin [3] = target: T2, F-actin (Oryctolagus cuniculus, UniProt P68135); assay: Actin co-sedimentation assay; format: binding, rabbit; design: Purified rabbit skeletal muscle filamentous actin (AKF99); purchased Cytoskeleton Inc. (Denver, CO) AKF99; host or cells: rabbit skeletal muscle
[4] = system: Candida glabrata ATCC 2001; assay: Minimum inhibitory concentration (MIC) assay, modified CLSI M27-A3; format: cell-based; conditions: 24 hours, 35° C.
Protocol: as §2, §3

F-actin [5] = target: T2, F-actin; assay: Pyrene labeled actin depolymerization assay; format: biochemical; design: purchased Cytoskeleton, Inc. (Denver, CO) BK003; conditions: 5 μM
Protocol: as §1

Row | SMILES | pyrene fluorescence reading, plateau in polymerization buffer (actin) | MIC [1] [µg/mL] | MIC [2] [µg/mL] | Kd (F-actin [3]) [nM] | fold lower saturation of binding ratio than native occidiofungin (F-actin [3]; versus native occidiofungin) [fold] | MIC [4] [µg/mL] | effect on polymerization or depolymerization of actin (F-actin [5]) | pyrene fluorescent reading following incubation in depolymerization buffer (F-actin [5]; no drug control at 2,500 AU) | fold lower binding affinity to actin than native compound (F-actin [3]; versus native occidiofungin) [fold]
1 | CCCCCCCCCCCCCCCC(O)C(CO)NCC[C@@H]1CC(=O)N[C@H](CO)C(=O)N[C@H]([C@H](O)c2ccc(O)cc2)C(=O)N[C@H](CCN)C(=O)NCC(=O)N[C@@H](CC(N)=O)C(=O)N[C@@H](CO)C(=O)N[C@@H]([C@H](O)C(N)=O)C(=O)N1 (mixture of isomers) | ~21,000 AU | 2 | 16 | 25 | 13.5 | 8 | did not interfere with polymerization or depolymerization of actin | 2,500 AU | –
2 | CCCCCCCCCCCCNCC[C@@H]1CC(=O)N[C@H](CO)C(=O)N[C@H]([C@H](O)c2ccc(O)cc2)C(=O)N[C@H](CCN)C(=O)NCC(=O)N[C@@H](CC(N)=O)C(=O)N[C@@H](CO)C(=O)N[C@@H]([C@H](O)C(N)=O)C(=O)N1 [Dodecylamine containing OF-Δxyl analogue] (cyclo(GNS[Asn(3S-OH)][X1][dS][dTyr(βR-OH)][dDab])) | – | >4 | – | 4200 | – | – | – | – | ~4
